Source: patent publication US20210205413A1 (Nektar Therapeutics, priority 2018, published 2021)
“Also recorded” adds a separate entry of the source.

Assays:
Tcon proliferation = assay: In vitro Treg suppression assay (splenic Tregs of treated mice co-cultured with Tcon); type: cell-based, C57BL/6 mice
Description: The objective of this study is to assess the inhibitory function of regulatory T cells. […] Treg and Tcon are co-cultured at a range of ratios from 1:2 to 1:512 for three days. Cellular proliferation is evaluated by ^3H-thymidine incorporation over the final 16 hours of the assay, and the % of proliferating cells relative to plate controls is calculated.
Single-cell isolations are prepared for each spleen, and the resultant splenocyte mixtures are pooled for each dose group at each timepoint. A portion of the pooled sample equivalent to one spleen is aliquoted for immune cell profiling. The remaining splenocyte preparation is utilized for isolation of regulatory T cells (Tregs). […]
In vitro suppression assays are carried out in RPMI 1640 medium supplemented with 10% fetal bovine serum, 2 mM L-glutamine, 1 mM sodium pyruvate, 0.5 μM β-mercaptoethanol, and 1× antibiotic/antimycotic (100 units/mL penicillin, 100 μg/mL streptomycin and 250 ng/mL amphotericin B). […] The suppressive capacity of Tregs is assessed by the addition of Tregs to Tcon at different ratios (Treg:Tcon ratios of […] to 1:512). […] After washing cells free from unincorporated [3H]-thymidine, thymidine uptake is measured as counts-per-minute (CPM) using a microplate scintillation counter (TopCount NXT, Perkin Elmer). […]

MRL/MpJ-Faslpr mice = assay: Mouse model of systemic lupus erythematosus (SLE); type: in vivo
Description: The MRL/MpJ-Faslpr mouse model develops an autoimmune disease that reflects pathologies of human SLE, including lymph node enlargement, increased IgG levels, antinuclear antibody production, proteinuria, and kidney failure caused by inflammation of the glomeruli. […] On dosing days, a suitable quantity of test article is withdrawn and diluted with vehicle to arrive at the desired dosing concentration (0.03 mg/kg dose and 0.3 mg/kg dose); dose volume was 5 mL/kg. Animals used for the study are MRL/MpJ-Faslpr mice and MRL/MpJ naive, female mice, aged from 6-8 weeks. Animals are assigned to treatment groups by randomization. Treatment groups are described in Table 13 below. 45 MRL/MpJ-Faslpr mice are randomized into 3 groups (15 each for Groups 2-4) based on body weight and level of protein content in urine before the commencement of the experiment. Animals in Groups 2-4 receive vehicle or test article delivered subcutaneously as described in Table 6. Group 1-MRL/MpJ mice receive the vehicle as a negative control. Three (3) days after the first dose administration on Week 8, 3 mice from Groups 2-4 are humanely sacrificed and blood samples were collected and processed. Body weights are measured twice a week from the commencement of the study and continued throughout. Skin lesion pictures were taken when first observed and then at one week intervals. Urine is obtained the day before dosing (at baseline) and then collected weekly thereafter. Protein levels in the urine are measured using a Siemens Clinitek Status Analyzer. On sacrifice day (3 days after the last dose at the end of Week 20), all mice are anesthetized by intraperitoneal injection of chloral hydrate (50 mg/kg). Blood samples are collected, and centrifuged at 10000 r/min for 10 min to obtain serum samples. The serum is stored at −80° C. until clinical biochemistry testing. Serum samples (100 μl) are analyzed for anti-dsDNA level by ELISA (Mouse Anti-dsDNA IgG-specific ELISA Kit, Alpha Diagnostic International, Cat. No. 5120) and the serum tested for BUN concentration using a Hitachi 7020 Automatic Biochemistry Analyzer. For lymphocyte analysis, blood samples are collected in EDTA-K tubes and tested for CD3/CD4/CD8/Treg/NK/B cell % by flow cytometry. […] This study further elucidates the effect of RUR-IL-2-induced Tregs on control of the physiological immune response and disease progression in a representative animal model of SLE.

CD4+ and CD8+ T cells = assay: Phase I single ascending dose study in healthy volunteers: Tcon cells; type: in vivo, human
Description: (§1) A double-blind, randomized, placebo-controlled study is conducted to evaluate the safety, tolerability, pharmacokinetics, and pharmacodynamics of single ascending low sub-cutaneous doses of an RUR20kD-IL-2 composition (RUR20kD-IL-2) in healthy volunteers. […] Twelve subjects are randomized to each dose cohort, nine of whom received a single subcutaneous dose of RUR20kD-IL-2 while three received placebo. […] The drug product is supplied in single-use glass vials and stored at 2-8° C. […] Placebo is a commercially available 0.9% sodium chloride solution. A starting dose of 0.3 μg/kg is chosen using the minimally anticipated biological effect level (MABEL) approach and is supported by the no observed adverse effect level (NOAEL) in the most sensitive species from nonclinical toxicology studies.
(§2) The primary objective of the study is to evaluate the safety and tolerability of RUR20kD-IL-2 administered as a single subcutaneous dose. […] In a first phase of the study, immune markers are tested pre-dose up to 20 hours post-dose. Specifically, Tregs, CD4^+-T cells, CD8^+-T cells, natural killer (NK) cells, cytokines, soluble CD25, and RNA are tested in RUR20kD-IL-2- and placebo-receiving cohorts. In subsequent phases, the same immune markers are also tested at 4-, 5-, 6-, 7-, 8-, 10-, 12-, 15-, 18-, 20-, 25-, 30-, 40, and 50-days post-dose.

[1] = Phase I single ascending dose study in healthy volunteers: safety and tolerability; type: in vivo, human; conditions: single SC doses
Description: as §1, §2

[2] = repeat administration over 12 weeks

(1,3-bis(methoxypoly(ethylene glycol)10kDcarbamoyl)-2-propanoxy)-4-butanamide)interleukin-2) [RUR20kD-IL-2]
duration of increased Treg suppressive activity (Tcon proliferation; Treg:Tcon ratio 1:2): maintained for four days | suppressive capacity of Tregs isolated after administration (Tcon proliferation; Tregs isolated 1 and 4 days post dose, vs vehicle): greatly increased suppressive capacity | protein levels in urine (biomarker of kidney damage) (MRL/MpJ-Faslpr mice; 0.3 mg/kg s.c. twice weekly, week 8 to week 20): nearly the same levels as observed in normal mice | Treg elevation (MRL/MpJ-Faslpr mice; [2]): sustains Treg elevation | blood urea nitrogen (MRL/MpJ-Faslpr mice; [2]): reduces blood urea nitrogen | urine protein levels and kidney histopathology (MRL/MpJ-Faslpr mice; [2]): returns urine protein levels and kidney histopathology to normal | absolute number of CD8+ T cells and percentage of Ki67+ CD8+ T cells (CD4+ and CD8+ T cells; single SC 13.5 μg/kg): small increases | percentage or numbers of T cell populations (CD4+, CD8+) (CD4+ and CD8+ T cells; single SC dose, any dose): no changes in percentage or numbers of T cell populations (CD4+, CD8+); also recorded: no changes in percentages or numbers of conventional CD4+ or CD8+ T cells | adverse events [1]: primarily limited to mild or moderate (Grade 1 or 2) injection site reactions; also recorded: primarily limited to mild (grade 1) injection site reactions | anti-drug antibodies [1]: no elicitation of anti-drug antibodies; also recorded: none have been detected | dose-limiting toxicities, serious adverse events, deaths, clinically significant abnormalities [1]: No dose-limiting toxicities (DLTs), serious adverse events (SAEs), deaths, or clinically significant abnormalities; also recorded: no dose-limiting toxicities, deaths, or adverse events leading to study discontinuation; also recorded: no dose-limiting toxicities, serious adverse events, deaths, or clinically significant abnormalities in vital signs, electrocardiograms, or laboratory test values
